Source: patent publication US9113629B2, “4-amino-6-(4-substituted-phenyl)-picolinates and 6-amino-2-(4-substituted-phenyl)-pyrimidine-4-carboxylates and their use as herbicides” (DOW AGROSCIENCES LLC, priority 2013, dated 2015)
Read-outs that look alike come from different tables or passages of the source.

Key:
[1] = tested on: Key Broadleaf Weed and Crop Species; experiment: Post-emergent Test II herbicidal activity (Table 5); assay type: in vivo; details: post-emergence, 336 h, 14 days after application; for pest or weed control at 70 g/ha: application rate 70 g ai/ha; for pest or weed control at 140 g/ha: application rate 140 g ai/ha
Method in brief: (§1)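 Plants grown in Metro-Mix 360 (pH 6.0–6.8) in a greenhouse (~15 h photoperiod, 23–29 °C day) to first or second true leaf stage, then sprayed with compound in acetone/DMSO/aqueous crop-oil-surfactant carrier at 187 L/ha by track sprayer. Injury visually scored 0–100% versus untreated plants after 14 d.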

[2] = tested on: Key Grass and Sedge Weeds as well as Grass Crops; experiment: Post-emergent Test II herbicidal activity (Table 6); assay type: in vivo; details: post-emergence, 336 h; for pest or weed control at 70 g/ha: 70 g ai/ha; for pest or weed control at 140 g/ha: 140 g ai/ha
Method in brief: as §1

[3] = ABUTH: velvetleaf (Abutilon theophrasti), read-out: Visual Growth Reduction (%) 14 Days After Application, ABUTH
[4] = AMARE: redroot pigweed (Amaranthus retroflexus), read-out: Visual Growth Reduction (%) 14 Days After Application, AMARE
[5] = BRSNN: oilseed-rape, canola (Brassica napus), read-out: Visual Growth Reduction (%) 14 Days After Application, BRSNN
[6] = CHEAL: lambsquarters (Chenopodium album), read-out: Visual Growth Reduction (%) 14 Days After Application, CHEAL
[7] = EPHHL: wild poinsettia (Euphorbia heterophylla), read-out: Visual Growth Reduction (%) 14 Days After Application, EPHHL
[8] = HELAN: sunflower (Helianthus annuus), read-out: Visual Growth Reduction (%) 14 Days After Application, HELAN
[9] = VIOTR: wild pansy (Viola tricolor), read-out: Visual Growth Reduction (%) 14 Days After Application, VIOTR
[10] = CYPES: yellow nutsedge (Cyperus esculentus), read-out: Visual Growth Reduction (%) 14 Days After Application, CYPES
[11] = DIGSA: crabgrass (Digitaria sanguinalis), read-out: Visual Growth Reduction (%) 14 Days After Application, DIGSA
[12] = ECHCG: barnyardgrass (Echinochloa crus-galli), read-out: Visual Growth Reduction (%) 14 Days After Application, ECHCG
[13] = ORYSA: rice (Oryza sativa), crop, read-out: Visual Growth Reduction (%) 14 Days After Application, ORYSA
[14] = SETFA: giant foxtail (Setaria faberi), read-out: Visual Growth Reduction (%) 14 Days After Application, SETFA
[15] = SORVU: grain sorghum (Sorghum vulgare), read-out: Visual Growth Reduction (%) 14 Days After Application, SORVU
[16] = TRZSS (wheat, Triticum aestivum), crop, read-out: Visual Growth Reduction (%) 14 Days After Application, TRZSS
[17] = ZEAMX: maize, corn (Zea mays), crop, read-out: Visual Growth Reduction (%) 14 Days After Application, ZEAMX

Structure (SMILES): Nc1c(F)c(-c2ccc(Br)c(F)c2F)nc(C(=O)O)c1Cl [Compound 147]
- pest or weed control at 70 g/ha [1, 3]: 95 to 100%
- pest or weed control at 140 g/ha [1, 3]: 0 to 29%
- pest or weed control at 70 g/ha [1, 4]: 95 to 100%
- pest or weed control at 140 g/ha [1, 4]: 95 to 100%
- pest or weed control at 70 g/ha [1, 5]: 95 to 100%
- pest or weed control at 140 g/ha [1, 5]: 95 to 100%
- pest or weed control at 70 g/ha [1, 6]: 95 to 100%
- pest or weed control at 140 g/ha [1, 6]: 95 to 100%
- pest or weed control at 70 g/ha [1, 7]: 95 to 100%
- pest or weed control at 140 g/ha [1, 7]: 95 to 100%
- pest or weed control at 70 g/ha [1, 8]: 95 to 100%
- pest or weed control at 140 g/ha [1, 8]: 95 to 100%
- pest or weed control at 70 g/ha [1, 9]: 95 to 100%
- pest or weed control at 140 g/ha [1, 9]: 95 to 100%
- pest or weed control at 70 g/ha [2, 10]: 95 to 100%
- pest or weed control at 140 g/ha [2, 10]: 95 to 100%
- pest or weed control at 70 g/ha [2, 11]: 85 to 94%
- pest or weed control at 140 g/ha [2, 11]: 95 to 100%
- pest or weed control at 70 g/ha [2, 12]: 95 to 100%
- pest or weed control at 140 g/ha [2, 12]: 95 to 100%
- pest or weed control at 70 g/ha [2, 13]: 60 to 74%
- pest or weed control at 140 g/ha [2, 13]: 75 to 84%
- pest or weed control at 70 g/ha [2, 14]: 0 to 29%
- pest or weed control at 140 g/ha [2, 14]: 95 to 100%
- pest or weed control at 70 g/ha [2, 15]: 95 to 100%
- pest or weed control at 140 g/ha [2, 15]: 95 to 100%
- pest or weed control at 70 g/ha [2, 16]: 60 to 74%
- pest or weed control at 140 g/ha [2, 16]: 60 to 74%
- pest or weed control at 70 g/ha [2, 17]: 95 to 100%
- pest or weed control at 140 g/ha [2, 17]: 95 to 100%
